Non-standard residues stand in square brackets, D forms with d. Residues, ends and D or L forms follow the SMILES beside them. *: point of attachment. Dolaproine = CO[C@@H]([C@@H]1CCCN1)[C@@H](C)C(=O)O; Dil = CC[C@H](C)[C@H](NC)[C@@H](CC(=O)O)OC; X1 = C[C@@H](N*)[C@@H](O)c1ccccc1; NMeV = CN[C@H](C(=O)O)C(C)C
Key:
[1] = system: urothelial cancer; details: second line treatment; best supportive care 4.6 months; cited from earlier work
[2] = system: subjects; details: cited from earlier work
[3] = system: acute myeloid leukemia (AML) at relapse; details: administered alone; cited from earlier work
[4] = Phase 1 study of EV: pharmacokinetics; format: in vivo, human; details: EV dosing on Days 1, 8 and 15 of every 28-day cycle
Description: Based on pharmacokinetic data from the phase 1 study, the half-life of EV is ˜1-2 days. […] Minimal (<50%) intra-cycle accumulation of MMAE was observed. It is anticipated that the dosing schedule in the study will maintain ADC exposures over each 28-day cycle, contributing to a favorable balance of activity and safety, as observed in the phase 1 trial.

[5] = system: locally advanced or metastatic urothelial cancer; details: second line, KEYNOTE-045; cited from earlier work
[6] = molecular target: PD-1 (Homo sapiens, UniProt Q15116); details: cited from earlier work
PD-1, sequence (Q15116 25-288): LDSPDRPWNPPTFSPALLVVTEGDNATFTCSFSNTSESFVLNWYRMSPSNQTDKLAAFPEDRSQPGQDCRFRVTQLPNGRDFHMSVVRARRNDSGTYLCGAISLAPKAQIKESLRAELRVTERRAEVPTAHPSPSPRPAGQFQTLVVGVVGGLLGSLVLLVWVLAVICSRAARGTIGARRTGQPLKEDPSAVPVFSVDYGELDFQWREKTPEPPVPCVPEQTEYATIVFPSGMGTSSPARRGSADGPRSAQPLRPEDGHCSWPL

## CC[C@]12C=CCN3CC[C@@]4(c5cc([C@@]6(C(=O)OC)C[C@@H]7C[C@@H](C(C)(F)F)CN(Cc8c6[nH]c6ccccc86)C7)c(OC)cc5N(C)[C@H]4[C@@](O)(C(=O)OC)[C@@H]1OC(C)=O)[C@@H]32 [Vinflunine, vinflunine]
[1]
  Median OS: 6.9 months
[2]; after administration of vinflunine
  Cases of Posterior Reversible Encephalopathy Syndrome (PRES): have been observed

## CC(=O)O[C@@]12CO[C@@H]1C[C@H](O)[C@@]1(C)C(=O)[C@H](O)C3=C(C)[C@@H](OC(=O)[C@H](O)[C@@H](NC(=O)OC(C)(C)C)c4ccccc4)C[C@@](O)([C@@H](OC(=O)c4ccccc4)[C@H]21)C3(C)C [Docetaxel, docetaxel]
[2]; in vivo
  fluid retention following docetaxel therapy: Severe fluid retention has been reported

## CT-011: anti-PD-1 antibody, a humanized antibody
[3]
  response in acute myeloid leukemia (AML) at relapse: failed to show response

## CC[C@H](C)[C@@H]([C@@H](CC(=O)N1CCC[C@H]1[C@H](OC)[C@@H](C)C(=O)N[C@H](C)[C@@H](O)c1ccccc1)OC)N(C)C(=O)[C@@H](NC(=O)[C@@H](NC)C(C)C)C(C)C [MMAE, monomethyl auristatin E, reference compound] (H-[NMeV]V[Dil][Dolaproine]-X1)
[4]
  intra-cycle accumulation of MMAE: < 50%

## pembrolizumab: humanized monoclonal IgG4 anti-PD-1 antibody
[5]
  Median OS: 10.3 months

## BGB-A317: anti-PD-1 monoclonal antibody in which the ability to bind Fc gamma receptor I is engineered out
[6]
  binding to PD-1: high affinity

Reference: patent US20230330251A1, “METHODS FOR TREATING CANCERS WITH ANTIBODY DRUG CONJUGATES (ADC) THAT BIND TO 191P4D12 PROTEINS” (AGENSYS, INC., priority 2020, published 2023)
